Patent publication US10266537B2, “3-acetylenyl-pyrazole-pyrimidine derivative, and preparation method therefor and uses thereof” (Si Chuan University, priority 2015, dated 2019)

What was measured:
Experiment in all cases: Kinase inhibition assay (KinaseProfiler, 33P-ATP)
Type in all cases: biochemical
Met(D1246H)(h) = Met(D1246H)(h) (Homo sapiens (Human), UniProt P08581, D1246H); settings: read-out: The percentage of the remaining active protein
PKCδ(h) = PKCδ(h) (Homo sapiens (Human), UniProt Q05655); settings: read-out: The percentage of the remaining active protein
PKCε(h) = PKCε(h) (Homo sapiens (Human), UniProt Q02156); settings: read-out: The percentage of the remaining active protein
EGFR(L858R)(h) = EGFR(L858R)(h) (Homo sapiens (Human), UniProt P00533, L858R); settings: read-out: The percentage of the remaining active protein
ALK4(h) = ALK4(h) (Homo sapiens (Human), UniProt P36896); settings: read-out: The percentage of the remaining active protein
Ret (V804L)(h) = Ret (V804L)(h) (Homo sapiens (Human), UniProt P07949, V804L); settings: read-out: The percentage of the remaining active protein
PRAK(h) = PRAK(h) (Homo sapiens (Human), UniProt Q8IW41); settings: read-out: The percentage of the remaining active protein
CDK1/cyclinB(h) = CDK1/cyclinB(h) (Homo sapiens (Human), UniProt P06493); settings: read-out: The percentage of the remaining active protein
PDK1(h) = PDK1(h) (Homo sapiens (Human), UniProt O15530); settings: read-out: The percentage of the remaining active protein
Chain of PDK1(h) (O15530 whole entry): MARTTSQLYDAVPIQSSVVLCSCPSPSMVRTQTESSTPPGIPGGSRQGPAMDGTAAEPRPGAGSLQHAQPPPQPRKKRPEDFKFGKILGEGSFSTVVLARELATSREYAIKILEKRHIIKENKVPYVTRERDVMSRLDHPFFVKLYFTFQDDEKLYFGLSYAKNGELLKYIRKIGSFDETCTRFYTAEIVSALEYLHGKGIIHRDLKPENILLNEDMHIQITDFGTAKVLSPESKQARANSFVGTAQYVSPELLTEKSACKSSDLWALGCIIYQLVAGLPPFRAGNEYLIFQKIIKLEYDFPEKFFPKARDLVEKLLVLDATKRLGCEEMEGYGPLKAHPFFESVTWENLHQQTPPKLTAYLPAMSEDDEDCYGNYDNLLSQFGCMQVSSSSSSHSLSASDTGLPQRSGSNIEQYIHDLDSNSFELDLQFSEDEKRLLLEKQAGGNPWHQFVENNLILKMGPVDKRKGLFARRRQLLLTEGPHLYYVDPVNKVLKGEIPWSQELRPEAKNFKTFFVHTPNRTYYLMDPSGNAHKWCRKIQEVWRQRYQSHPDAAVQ

NEK6(h) = NEK6(h) (Homo sapiens (Human), UniProt Q9HC98); settings: read-out: The percentage of the remaining active protein
Chain of NEK6(h) (Q9HC98 whole entry): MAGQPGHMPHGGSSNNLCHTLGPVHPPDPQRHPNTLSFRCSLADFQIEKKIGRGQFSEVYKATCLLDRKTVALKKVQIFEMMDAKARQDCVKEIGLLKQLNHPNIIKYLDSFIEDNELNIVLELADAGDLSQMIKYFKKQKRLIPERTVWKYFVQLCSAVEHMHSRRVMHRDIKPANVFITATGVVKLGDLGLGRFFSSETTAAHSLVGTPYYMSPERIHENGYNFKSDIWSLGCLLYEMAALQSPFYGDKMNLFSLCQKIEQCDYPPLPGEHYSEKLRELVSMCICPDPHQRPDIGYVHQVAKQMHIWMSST

IGF-1R(h), activated = IGF-1R(h), activated (Homo sapiens (Human), UniProt P08069); settings: read-out: The percentage of the remaining active protein
Chain of IGF-1R(h), activated (P08069 959-1367 limits assumed): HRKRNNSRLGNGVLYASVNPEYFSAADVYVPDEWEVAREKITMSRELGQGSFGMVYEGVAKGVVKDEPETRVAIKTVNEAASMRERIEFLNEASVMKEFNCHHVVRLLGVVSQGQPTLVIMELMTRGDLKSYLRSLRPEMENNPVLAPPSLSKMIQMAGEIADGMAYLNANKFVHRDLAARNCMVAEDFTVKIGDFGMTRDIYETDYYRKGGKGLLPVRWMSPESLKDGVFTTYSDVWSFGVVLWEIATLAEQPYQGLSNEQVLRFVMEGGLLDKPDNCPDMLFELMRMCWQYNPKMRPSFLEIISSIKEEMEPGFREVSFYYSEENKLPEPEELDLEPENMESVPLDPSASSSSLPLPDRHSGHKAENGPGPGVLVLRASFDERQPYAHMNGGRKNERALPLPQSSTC

Haspin(h) = Haspin(h) (Homo sapiens (Human), UniProt Q8TF76); settings: read-out: The percentage of the remaining active protein
GCK(h) = GCK(h) (Homo sapiens (Human), UniProt Q12851); settings: read-out: The percentage of the remaining active protein
NEK7(h) = NEK7(h) (Homo sapiens (Human), UniProt Q8TDX7); settings: read-out: The percentage of the remaining active protein
Mnk2(h) = Mnk2(h) (Homo sapiens (Human), UniProt Q9HBH9); settings: read-out: The percentage of the remaining active protein
BRK = BRK (Homo sapiens (Human), UniProt Q13882); settings: BRK(h), read-out: The percentage of the remaining active protein
MST4(h) = MST4(h) (Homo sapiens (Human), UniProt Q9P289); settings: read-out: The percentage of the remaining active protein
PKCη(h) = PKCη(h) (Homo sapiens (Human), UniProt P24723); settings: read-out: The percentage of the remaining active protein
TLK2(h) = TLK2(h) (Homo sapiens (Human), UniProt Q86UE8); settings: read-out: The percentage of the remaining active protein
DYRK2(h) = DYRK2(h) (Homo sapiens (Human), UniProt Q92630); settings: read-out: The percentage of the remaining active protein
Aurora-B(h) = Aurora-B(h) (Homo sapiens (Human), UniProt Q96GD4); settings: read-out: The percentage of the remaining active protein
Chain of Aurora-B(h) (Q96GD4 whole entry): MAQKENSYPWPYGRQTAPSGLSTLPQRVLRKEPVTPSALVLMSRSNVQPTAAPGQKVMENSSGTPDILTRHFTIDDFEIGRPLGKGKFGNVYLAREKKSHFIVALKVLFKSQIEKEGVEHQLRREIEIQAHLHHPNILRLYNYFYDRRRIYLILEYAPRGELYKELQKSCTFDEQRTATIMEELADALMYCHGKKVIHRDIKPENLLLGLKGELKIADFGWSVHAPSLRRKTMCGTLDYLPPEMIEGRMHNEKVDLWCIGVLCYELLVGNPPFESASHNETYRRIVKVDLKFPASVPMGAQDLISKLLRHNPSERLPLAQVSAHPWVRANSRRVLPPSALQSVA

FGFR3 = FGFR3 (Homo sapiens (Human), UniProt P22607); settings: FGFR3(h), read-out: The percentage of the remaining active protein
Flt1 = Flt1 (Homo sapiens (Human), UniProt P17948)
Chain of Flt1 (P17948 27-1338): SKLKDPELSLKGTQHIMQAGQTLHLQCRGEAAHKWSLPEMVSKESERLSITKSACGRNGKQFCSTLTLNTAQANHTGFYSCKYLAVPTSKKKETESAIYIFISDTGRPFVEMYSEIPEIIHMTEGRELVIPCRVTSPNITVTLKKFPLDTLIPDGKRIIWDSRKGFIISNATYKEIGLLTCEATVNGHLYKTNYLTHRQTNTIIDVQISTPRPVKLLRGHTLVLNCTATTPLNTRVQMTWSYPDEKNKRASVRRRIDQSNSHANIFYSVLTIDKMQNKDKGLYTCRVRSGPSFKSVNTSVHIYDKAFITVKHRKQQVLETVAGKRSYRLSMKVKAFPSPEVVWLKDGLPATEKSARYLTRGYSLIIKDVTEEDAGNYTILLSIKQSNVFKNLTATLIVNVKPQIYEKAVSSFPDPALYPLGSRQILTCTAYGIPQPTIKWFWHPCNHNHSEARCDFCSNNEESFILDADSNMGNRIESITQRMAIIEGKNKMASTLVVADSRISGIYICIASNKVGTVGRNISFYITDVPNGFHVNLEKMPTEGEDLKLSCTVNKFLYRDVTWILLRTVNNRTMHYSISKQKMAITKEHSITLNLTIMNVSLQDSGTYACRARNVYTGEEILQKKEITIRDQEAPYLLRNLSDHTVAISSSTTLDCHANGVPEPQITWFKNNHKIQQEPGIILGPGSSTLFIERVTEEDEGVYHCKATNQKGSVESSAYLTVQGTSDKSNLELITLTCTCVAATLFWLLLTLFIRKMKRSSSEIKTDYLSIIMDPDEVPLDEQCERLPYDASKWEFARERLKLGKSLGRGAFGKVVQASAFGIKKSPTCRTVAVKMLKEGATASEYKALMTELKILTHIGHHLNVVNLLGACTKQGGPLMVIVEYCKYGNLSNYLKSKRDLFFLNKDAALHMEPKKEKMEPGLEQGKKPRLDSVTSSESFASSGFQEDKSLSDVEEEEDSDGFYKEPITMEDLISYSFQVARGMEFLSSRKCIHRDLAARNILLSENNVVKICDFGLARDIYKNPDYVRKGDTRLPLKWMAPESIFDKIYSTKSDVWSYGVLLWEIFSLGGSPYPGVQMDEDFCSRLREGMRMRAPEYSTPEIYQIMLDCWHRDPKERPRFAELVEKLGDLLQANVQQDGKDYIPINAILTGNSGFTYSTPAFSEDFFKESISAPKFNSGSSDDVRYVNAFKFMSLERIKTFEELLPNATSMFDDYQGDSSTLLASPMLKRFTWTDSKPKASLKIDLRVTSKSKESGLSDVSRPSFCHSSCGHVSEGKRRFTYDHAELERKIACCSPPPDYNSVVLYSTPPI

Snk(h) = Snk(h) (Homo sapiens (Human), UniProt Q9NYY3); settings: read-out: The percentage of the remaining active protein
Met(Y1248H)(h) = Met(Y1248H)(h) (Homo sapiens (Human), UniProt P08581, Y1248H); settings: read-out: The percentage of the remaining active protein
CaMKIIγ(h) = CaMKIIγ(h) (Homo sapiens (Human), UniProt Q13555); settings: read-out: The percentage of the remaining active protein
Pim-3(h) = Pim-3(h) (Homo sapiens (Human), UniProt Q86V86); settings: read-out: The percentage of the remaining active protein
SAPK4(h) = SAPK4(h) (Homo sapiens (Human), UniProt O15264); settings: read-out: The percentage of the remaining active protein
SIK(h) = SIK(h) (Homo sapiens (Human), UniProt P57059); settings: read-out: The percentage of the remaining active protein
Met(Y1248D)(h) = Met(Y1248D)(h) (Homo sapiens (Human), UniProt P08581, Y1248D); settings: read-out: The percentage of the remaining active protein
Mer = Mer (Homo sapiens (Human), UniProt Q12866); settings: Mer(h), read-out: The percentage of the remaining active protein
HIPK2(h) = HIPK2(h) (Homo sapiens (Human), UniProt Q9H2X6); settings: read-out: The percentage of the remaining active protein
Chain of HIPK2(h) (Q9H2X6 whole entry): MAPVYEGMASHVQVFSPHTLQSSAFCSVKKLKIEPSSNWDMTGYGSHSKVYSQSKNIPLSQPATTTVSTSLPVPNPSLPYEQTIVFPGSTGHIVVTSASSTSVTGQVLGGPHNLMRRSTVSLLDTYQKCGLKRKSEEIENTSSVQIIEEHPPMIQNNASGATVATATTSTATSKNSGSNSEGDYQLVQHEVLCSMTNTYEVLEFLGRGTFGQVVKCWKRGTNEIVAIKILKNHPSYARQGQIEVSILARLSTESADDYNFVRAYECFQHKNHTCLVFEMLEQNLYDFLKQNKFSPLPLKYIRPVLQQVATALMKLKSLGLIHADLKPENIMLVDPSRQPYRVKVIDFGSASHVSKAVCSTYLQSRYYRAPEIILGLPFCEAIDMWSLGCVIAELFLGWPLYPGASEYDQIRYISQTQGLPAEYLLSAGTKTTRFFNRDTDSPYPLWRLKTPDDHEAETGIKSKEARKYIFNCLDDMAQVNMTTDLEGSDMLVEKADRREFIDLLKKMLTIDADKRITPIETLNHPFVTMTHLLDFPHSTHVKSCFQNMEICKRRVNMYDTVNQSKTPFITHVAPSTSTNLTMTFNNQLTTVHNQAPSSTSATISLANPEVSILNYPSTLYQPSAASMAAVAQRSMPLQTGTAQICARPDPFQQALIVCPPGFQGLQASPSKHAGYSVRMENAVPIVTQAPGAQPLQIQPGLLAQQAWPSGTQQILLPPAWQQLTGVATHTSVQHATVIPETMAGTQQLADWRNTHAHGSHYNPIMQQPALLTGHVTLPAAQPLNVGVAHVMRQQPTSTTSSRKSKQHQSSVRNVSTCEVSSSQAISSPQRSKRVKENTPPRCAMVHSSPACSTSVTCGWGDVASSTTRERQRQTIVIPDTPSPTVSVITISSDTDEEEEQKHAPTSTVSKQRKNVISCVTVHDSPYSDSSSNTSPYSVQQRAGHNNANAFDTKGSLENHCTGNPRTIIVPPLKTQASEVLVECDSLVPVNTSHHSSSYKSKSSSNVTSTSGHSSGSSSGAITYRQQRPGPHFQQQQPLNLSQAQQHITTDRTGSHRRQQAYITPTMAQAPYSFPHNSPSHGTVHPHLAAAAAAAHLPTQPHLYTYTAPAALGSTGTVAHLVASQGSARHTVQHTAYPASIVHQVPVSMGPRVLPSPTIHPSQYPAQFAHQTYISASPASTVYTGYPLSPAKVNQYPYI

Met(M1268T)(h) = Met(M1268T)(h) (Homo sapiens (Human), UniProt P08581, M1268T); settings: read-out: The percentage of the remaining active protein
[1] = target: PI3 Kinase (p110b/p85a)(h) (Homo sapiens (Human), UniProt P42338); settings: read-out: The percentage of the remaining active protein
PAK5(h) = PAK5(h) (Homo sapiens (Human), UniProt Q9P286); settings: read-out: The percentage of the remaining active protein
PKCμ(h) = PKCμ(h) (Homo sapiens (Human), UniProt Q15139); settings: read-out: The percentage of the remaining active protein
Chain of PKCμ(h) (Q15139 whole entry): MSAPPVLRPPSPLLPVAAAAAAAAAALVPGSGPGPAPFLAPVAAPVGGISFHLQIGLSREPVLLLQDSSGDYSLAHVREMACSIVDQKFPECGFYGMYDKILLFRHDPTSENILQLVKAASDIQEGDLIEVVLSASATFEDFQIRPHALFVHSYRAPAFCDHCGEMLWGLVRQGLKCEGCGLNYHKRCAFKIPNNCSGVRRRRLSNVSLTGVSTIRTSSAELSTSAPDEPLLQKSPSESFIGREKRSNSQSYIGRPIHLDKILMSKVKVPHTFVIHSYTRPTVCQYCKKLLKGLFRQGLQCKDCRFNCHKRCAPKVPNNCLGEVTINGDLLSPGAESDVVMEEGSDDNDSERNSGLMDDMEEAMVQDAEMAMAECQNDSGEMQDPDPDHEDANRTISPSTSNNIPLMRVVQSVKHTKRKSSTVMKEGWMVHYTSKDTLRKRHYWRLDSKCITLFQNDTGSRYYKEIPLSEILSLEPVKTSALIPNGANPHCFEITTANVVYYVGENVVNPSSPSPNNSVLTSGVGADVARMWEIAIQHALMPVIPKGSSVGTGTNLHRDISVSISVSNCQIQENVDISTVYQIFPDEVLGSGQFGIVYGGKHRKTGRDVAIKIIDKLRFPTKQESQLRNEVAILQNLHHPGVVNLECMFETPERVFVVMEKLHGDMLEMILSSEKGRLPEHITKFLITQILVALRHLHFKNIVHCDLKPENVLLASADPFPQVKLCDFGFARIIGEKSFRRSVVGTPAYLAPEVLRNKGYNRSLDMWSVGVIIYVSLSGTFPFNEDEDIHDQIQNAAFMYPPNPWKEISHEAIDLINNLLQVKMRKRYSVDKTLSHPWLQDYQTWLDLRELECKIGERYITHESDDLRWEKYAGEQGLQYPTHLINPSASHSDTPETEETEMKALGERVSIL

remaining activity at 10 µM (Met(D1246H)(h)): 124%
remaining activity at 10 µM (PKCδ(h)): 96%
remaining activity at 10 µM (PKCε(h)): 117%
remaining activity at 10 µM (EGFR(L858R)(h)): 21%
remaining activity at 10 µM (ALK4(h)): 79%
remaining activity at 10 µM (Ret (V804L)(h)): 1%
remaining activity at 10 µM (PRAK(h)): 77%
remaining activity at 10 µM (CDK1/cyclinB(h)): 104%
remaining activity at 10 µM (PDK1(h)): 113%
remaining activity at 10 µM (NEK6(h)): 98%
remaining activity at 10 µM (IGF-1R(h), activated): 91%
remaining activity at 10 µM (Haspin(h)): 93%
remaining activity at 10 µM (GCK(h)): 49%
remaining activity at 10 µM (NEK7(h)): 98%
remaining activity at 10 µM (Mnk2(h)): 96%
remaining activity at 10 µM (BRK): -1%
remaining activity at 10 µM (MST4(h)): 73%
remaining activity at 10 µM (PKCη(h)): 72%
remaining activity at 10 µM (TLK2(h)): 93%
remaining activity at 10 µM (DYRK2(h)): 107%
remaining activity at 10 µM (Aurora-B(h)): 475%
remaining activity at 10 µM (FGFR3): 3%
remaining activity at 10 µM (Flt1; Flt1(h), 10 μM, read-out: The percentage of the remaining active protein): 3%
IC50 (Flt1; Flt1, ATP at Km): 15 nM
remaining activity at 10 µM (Snk(h)): 109%
remaining activity at 10 µM (Met(Y1248H)(h)): 123%
remaining activity at 10 µM (CaMKIIγ(h)): 90%
remaining activity at 10 µM (Pim-3(h)): 99%
remaining activity at 10 µM (SAPK4(h)): 80%
remaining activity at 10 µM (SIK(h)): 7%
remaining activity at 10 µM (Met(Y1248D)(h)): 105%
remaining activity at 10 µM (Mer): 0%
remaining activity at 10 µM (HIPK2(h)): 99%
remaining activity at 10 µM (Met(M1268T)(h)): 136%
remaining activity at 10 µM [1]: 78%
remaining activity at 10 µM (PAK5(h)): 89%
remaining activity at 10 µM (PKCμ(h)): 91%
Compound: Cc1ccc(NC(=O)c2ccc(C)c(C(F)(F)F)c2)cc1C#Cc1nn([C@H]2CC[C@H](O)CC2)c2ncnc(N)c12 [Compound 93]
